According to patent publication US9179679B2, “Synergistic herbicidal composition containing penoxsulam and flazasulfuron” (Dow AgroSciences LLC, priority 2010, dated 2015):

How the values were obtained:
Type in all cases: in vivo
[1] = system: common groundsel (Senecio vulgaris, SENVU); experiment: Postemergence field trial #2, visual weed control in vines; conditions: 118 to 158 days after application, penoxsulam 7 and/or flazasulfuron 25 grams ai/ha
Protocol: (§1) These trials were conducted under field conditions in France. Trial sites were located in commercially grown vines of European grape (Vitis vinifera). The grapes were grown using normal cultural practices for fertilization, seeding, and maintenance to ensure good growth of the crop and the weeds. The trials were conducted using normal research methodology. Trial plots were between 2 to 4.5 meters (m) wide by 5.5 to 10 m long. All treatments were applied using a randomized complete block trial design with 3 or 4 replications per treatment. The trial sites had naturally occurring populations of weeds. The weed spectrum included, but was not limited to, black nightshade (Solanum nigrum, SOLNI), pigeongrass or foxtail millet (Setaria sp., SETSS), common lambsquarter (Chenopodium album, CHEAL), round-leaved cranesbill (Geranium rotundifolium, GERRT), common groundsel (Senecio vulgaris, SENVU), mallow (Malva L., MALSS) and common purslane (Portulaca oleracea, POROL).
(§2) Treatments consisted of tank mixes of an oil dispersion of penoxsulam and commercially available formulations of flazasulfuron (Katana herbicide, water dispersible granules) applied in water. The application volumes were between 150-325 liters per hectare (L/ha). All application were made using precision gas hand sprayers using a 2 or 3 m boom using flat fan (80° or 110°) nozzles to broadcast the treatments on the soil.
(§3) The treated plots and control plots were rated blind at various intervals after application. Ratings were based of Percent (%) Visual weed control, where 0 corresponds to no injury and 100 corresponds to complete kill.
(§4) Colby's equation was used to determine the herbicidal effects expected from the mixtures (Colby, S. R. Calculation of the synergistic and antagonistic response of herbicide combinations. Weeds 1967 15, 20-22).
(§5) The following equation was used to calculate the expected activity of mixtures containing two active ingredients, A and B: Expected=A+B−(A×B/100)
(§6) A=observed efficacy of active ingredient A at the same concentration as used in the mixture;
(§7) B=observed efficacy of active ingredient B at the same concentration as used in the mixture.

mallow (Malva L., MALSS) = experiment: as above; conditions: 118 to 158 days after application, penoxsulam 7 and/or flazasulfuron 25 grams ai/ha
Protocol: as §1, §2, §3, §4, §5, §6, §7

[2] = system: round-leaved cranesbill (Geranium rotundifolium, GERRT); experiment: as above; conditions: 118 to 158 days after application, penoxsulam 7 and/or flazasulfuron 25 grams ai/ha
Protocol: as §1, §2, §3, §4, §5, §6, §7

[3] = system: common purslane (Portulaca oleracea, POROL); experiment: as above; conditions: 118 to 158 days after application, penoxsulam 7 and/or flazasulfuron 25 grams ai/ha
Protocol: as §1, §2, §3, §4, §5, §6, §7

[4] = system: common groundsel (Senecio vulgaris, SENVU); experiment: Postemergence field trial #3, visual weed control in vines; conditions: 83 to 158 days after application, penoxsulam 7 and/or flazasulfuron 25 grams ai/ha
Protocol: as §1, §2, §3, §4, §5, §6, §7

[5] = system: black nightshade (Solanum nigrum, SOLNI); experiment: as above; conditions: 83 to 158 days after application, penoxsulam 7 and/or flazasulfuron 25 grams ai/ha
Protocol: as §1, §2, §3, §4, §5, §6, §7

[6] = system: round-leaved cranesbill (Geranium rotundifolium, GERRT); experiment: as above; conditions: 83 to 158 days after application, penoxsulam 7 and/or flazasulfuron 25 grams ai/ha
Protocol: as §1, §2, §3, §4, §5, §6, §7

[7] = system: common purslane (Portulaca oleracea, POROL); experiment: as above; conditions: 83 to 158 days after application, penoxsulam 7 and/or flazasulfuron 25 grams ai/ha
Protocol: as §1, §2, §3, §4, §5, §6, §7

[8] = system: pigeongrass or foxtail millet (Setaria sp., SETSS); experiment: Postemergence field trial #1, visual weed control in vines; conditions: 68 to 147 days after application, penoxsulam 7 and/or flazasulfuron 25 grams ai/ha
Protocol: as §1, §2, §3, §4, §5, §6, §7

[9] = system: black nightshade (Solanum nigrum, SOLNI); experiment: as above; conditions: France, 68 to 147 days after application, penoxsulam 7 and/or flazasulfuron 25 grams ai/ha; for SOLNI (2) Obs - percent control observed: Field trial #1, Echallat; for SOLNI (1) Obs - percent control observed: Field trial #1, Port A Binson
Protocol: as §1, §2, §3, §4, §5, §6, §7

[10] = system: common lambsquarter (Chenopodium album, CHEAL); experiment: as above; conditions: 68 to 147 days after application, penoxsulam 7 and/or flazasulfuron 25 grams ai/ha
Protocol: as §1, §2, §3, §4, §5, §6, §7

Row | SMILES | SENVU Obs - percent control observed [1] [%] | MALSS Obs - percent control observed (mallow (Malva L., MALSS)) [%] | GERRT Obs - percent control observed [2] [%] | POROL Obs - percent control observed [3] [%] | SENVU Obs - percent control observed [4] [%] | SOLNI Obs - percent control observed [5] [%] | GERRT Obs - percent control observed [6] [%] | POROL Obs - percent control observed [7] [%] | SETSS Obs - percent control observed [8] [%] | SOLNI (2) Obs - percent control observed [9] [%] | SOLNI (1) Obs - percent control observed [9] [%] | CHEAL Obs - percent control observed [10] [%]
1 | COc1cc(OC)nc(NC(=O)NS(=O)(=O)c2ncccc2C(F)(F)F)n1 [Flazasulfuron, 1-(4,6-dimethoxypyrimidin-2-yl)-3-(3-trifluoromethyl-2-pyridylsulfonyl)urea] | 30 | 53 | 23 | 78 | 30 | 1 | 23 | 78 | 73 | 58 | 6 | 63
2 | COc1cnc(OC)n2nc(NS(=O)(=O)c3c(OCC(F)F)cccc3C(F)(F)F)nc12 [Penoxsulam] | 3 | 20 | 13 | 0 | 3 | 70 | 13 | 0 | 1 | 17 | 1 | 0
